Measured values as given in article PMC12037410, “Pharmacological targeting of BMAL1 modulates circadian and immune pathways” (Nature Chemical Biology, 2025).

Target: BMAL1 (Homo sapiens, UniProt O00327)
Set-up: PASB domain (residues 338–449); Protein thermal shift (PTS) fragment screen on recombinant human BMAL1(PASB), shift of melting temperature
Settings: dTmB; binder

Chain of BMAL1 (O00327 338-449): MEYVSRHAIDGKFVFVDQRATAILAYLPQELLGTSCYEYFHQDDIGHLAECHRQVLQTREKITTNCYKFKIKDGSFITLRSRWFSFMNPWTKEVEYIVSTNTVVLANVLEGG

SMILES: CC(=O)N1CCN(c2ccc(O)cc2)CC1 [Prestw-Frag-2047, Compound 27]
- Bmal1(PASB) dTmB: -2.09 °C

SMILES: O=C(O)C1(c2ccccc2)CCCC1 [Prestw-Frag-2049, Compound 104]
- Bmal1(PASB) dTmB: -0.56 °C

SMILES: NS(=O)(=O)c1cc(C(=O)O)ccc1Cl [Prestw-Frag-2051, Compound 160]
- Bmal1(PASB) dTmB: 0.10 °C

SMILES: O=C(O)c1ccccc1NCc1ccco1 [Prestw-Frag-2052, Compound 70]
- Bmal1(PASB) dTmB: -0.26 °C

SMILES: NC1CCN(Cc2ccccc2)CC1 [Prestw-Frag-2060, Compound 207]
- Bmal1(PASB) dTmB: -0.05 °C

SMILES: NCCc1ccc(O)cc1 [Prestw-Frag-2070, Compound 299]
- Bmal1(PASB) dTmB: -0.26 °C

SMILES: Nc1cccnn1 [Prestw-Frag-2072, Compound 233]
- Bmal1(PASB) dTmB: -0.18 °C

SMILES: Cc1cc(C2CCCCC2)n(O)c(=O)c1 [Prestw-Frag-2092, Compound 58]
- Bmal1(PASB) dTmB: -1.46 °C

SMILES: CN(C)C(c1ccccc1)c1ccccc1 [Prestw-Frag-2100, Compound 331]
- Bmal1(PASB) dTmB: -1.24 °C

SMILES: COc1ccc(C(F)(F)F)cc1 [Prestw-Frag-2108, Compound 203]
- Bmal1(PASB) dTmB: -0.12 °C

SMILES: NC(N)=NCc1cccc(I)c1 [Prestw-Frag-2111, Compound 312]
- Bmal1(PASB) dTmB: -0.90 °C

SMILES: COc1ccc2nc(SC)[nH]c2c1 [Prestw-Frag-2118, Compound 167]
- Bmal1(PASB) dTmB: 1.19 °C

SMILES: NS(=O)(=O)c1ccc(C(=O)O)cc1 [Prestw-Frag-2123, Compound 82]
- Bmal1(PASB) dTmB: -0.15 °C

SMILES: Cc1cc(=O)[nH]c(=S)[nH]1 [Prestw-Frag-2127, Compound 68]
- Bmal1(PASB) dTmB: -0.75 °C

SMILES: NC(=O)c1ccccn1 [Prestw-Frag-2131, Compound 358]
- Bmal1(PASB) dTmB: -0.11 °C

SMILES: Cc1nc2ccccc2[nH]1 [Prestw-Frag-2136, Compound 408]
- Bmal1(PASB) dTmB: -0.37 °C

SMILES: O=C(O)Cc1cccs1 [Prestw-Frag-2140, Compound 161]
- Bmal1(PASB) dTmB: -0.19 °C

SMILES: O=C1OCc2ccccc21 [Prestw-Frag-2144, Compound 404]
- Bmal1(PASB) dTmB: -0.23 °C

SMILES: O=C(CCc1ccccc1)c1ccccc1O [Prestw-Frag-2152, Compound 434]
- Bmal1(PASB) dTmB: -0.33 °C

SMILES: CC(C)NCC(O)c1ccccc1 (centres unmarked) [Prestw-Frag-2168, Compound 193]
- Bmal1(PASB) dTmB: -0.58 °C

SMILES: O=C1CNS(=O)(=O)c2ccsc21 [Prestw-Frag-2176, Compound 30]
- Bmal1(PASB) dTmB: -4.81 °C

SMILES: Cc1c(C)c2c(c(C)c1O)CCC(C)(C)O2 [Prestw-Frag-2185, Compound 438]
- Bmal1(PASB) dTmB: 1.30 °C

SMILES: COc1cc2c(cc1OC)C(C)NCC2 (centres unmarked) [Prestw-Frag-2193, Compound 348]
- Bmal1(PASB) dTmB: -0.74 °C

SMILES: CCOc1ccc(N)cc1 [Prestw-Frag-2201, Compound 146]
- Bmal1(PASB) dTmB: -0.64 °C

SMILES: COc1ccc(OC)c(C(C)O)c1 (centres unmarked) [Prestw-Frag-2208, Compound 283]
- Bmal1(PASB) dTmB: -0.43 °C

SMILES: COc1ccc(CN2CCNCC2)cc1 [Prestw-Frag-2212, Compound 304]
- Bmal1(PASB) dTmB: -0.50 °C

SMILES: c1ccc(CN2CCNCC2)cc1 [Prestw-Frag-2215, Compound 424]
- Bmal1(PASB) dTmB: -0.38 °C

SMILES: O=C(Cc1ccccc1)c1ccccc1 [Prestw-Frag-2219, Compound 440]
- Bmal1(PASB) dTmB: -0.71 °C

SMILES: OCC(O)COc1ccc(Cl)cc1 (centres unmarked) [Prestw-Frag-2229, Compound 393]
- Bmal1(PASB) dTmB: 0.07 °C

SMILES: CS(=O)(=O)c1ccc(CO)cc1 [Prestw-Frag-2234, Compound 220]
- Bmal1(PASB) dTmB: -0.40 °C

SMILES: CC(O)(c1ccccc1)c1ccccc1 [Prestw-Frag-2235, Compound 444]
- Bmal1(PASB) dTmB: -1.59 °C

SMILES: CC(O)(c1ccccc1)c1ccccn1 (centres unmarked) [Prestw-Frag-2237, Compound 355]
- Bmal1(PASB) dTmB: -0.76 °C

SMILES: OC(c1ccccc1)c1ccccn1 (centres unmarked) [Prestw-Frag-2238, Compound 262]
- Bmal1(PASB) dTmB: -0.66 °C

SMILES: CC(=O)c1ccc2c(c1)Nc1ccccc1S2 [Prestw-Frag-2239, Compound 65]
- Bmal1(PASB) dTmB: 0.31 °C

SMILES: CCCCOc1cc(C(=O)OC)ccc1N [Prestw-Frag-2253, Compound 206]
- Bmal1(PASB) dTmB: -0.90 °C

SMILES: Nc1nc2ccccc2o1 [Prestw-Frag-2256, Compound 309]
- Bmal1(PASB) dTmB: -0.33 °C

SMILES: NC(=O)c1[nH]cnc1N [Prestw-Frag-2268, Compound 14]
- Bmal1(PASB) dTmB: -0.68 °C

SMILES: c1ccc2c(c1)OCO2 [Prestw-Frag-2299, Compound 175]
- Bmal1(PASB) dTmB: -0.52 °C

SMILES: OCc1ccncc1 [Prestw-Frag-2303, Compound 179]
- Bmal1(PASB) dTmB: -0.35 °C

SMILES: OCc1cccnc1 [Prestw-Frag-2304, Compound 272]
- Bmal1(PASB) dTmB: -0.06 °C

SMILES: Cc1cccc(C)c1N [Prestw-Frag-2313, Compound 365]
- Bmal1(PASB) dTmB: -0.18 °C

SMILES: COc1cc(NS(=O)(=O)c2ccc(N)cc2)ncn1 [Prestw-Frag-2337, Compound 376]
- Bmal1(PASB) dTmB: 0.09 °C

SMILES: COC(=O)c1ccc(N)cc1 [Prestw-Frag-2346, Compound 380]
- Bmal1(PASB) dTmB: -0.11 °C

SMILES: N=C(N)CSCc1ccccc1 [Prestw-Frag-2348, Compound 201]
- Bmal1(PASB) dTmB: 0.25 °C
